Laboratory results published in article PMC5007854, “β-Nitrostyrenes as Potential Anti-leishmanial Agents” (Frontiers in Microbiology, 2016).
In brackets after ≈: the same amount, converted by molar mass. Where two headings read alike, the source gives them in different places.

What was measured:
Assay type in all cases: cell-based
[1] = tested on: Candida albicans ATCC 90028; assay: Broth microdilution antifungal susceptibility (MIC/MFC); conditions: Candida albicans; for MIC: broth microdilution, 35°C, 48 h, read-out: MIC, Ca ATCC 90028; for MFC: ≥99.9% reduction of original inoculum, read-out: MFC, Ca ATCC 90028
Source text: (§1) One reference each of the following species was used for their in vitro susceptibility to β-nitrostyrene in this study: Staphylococcus aureus ATCC 29213, Staphylococcus epidermidis ATCC 14990, Escherichia coli ATCC 25922, Pseudomonas aeruginosa ATCC 27853, Candida albicans ATCC 90028, Candida glabrata ATCC 90030, Aspergillus fumigatus ATCC 16424 and Aspergillus niger ATCC 16404. These strains were procured from the American Type Culture Collection (ATCC, Manassas, VA, USA).
(§2) The antibacterial and antifungal activities of the β-nitrostyrenes were performed by broth microdilution methods as per the guidelines of Clinical and Laboratory Standard Institute (Wayne, [1998], [2008a],[b],[c]) by using Mueller-Hinton broth (MHB; Becton-Dickinson, Cockeysville, MD, USA) supplemented with calcium (25 mg/L) and magnesium (12.5 mg/L) for bacterial strains while as RPMI 1640 medium with L-glutamine and without sodium bicarbonate, buffered to pH 7.0 with 0.165 M 3-(N-morpholino) propanesulfonic acid (MOPS; both from Sigma) was used for fungal strains. Stock solutions were prepared in 100% dimethyl sulfoxide (DMSO; Sigma; distilled water was used for ciprofloxacin), with a final DMSO concentration of 1% (vol. per vol.) and two-fold serial dilutions were prepared in media in amounts of 100 μL per well in 96-well U-bottom microtiter plates (Tarsons, Kolkata, India) to yield twice the final concentration required for testing, which ranged from 64 to 0.12 μg/mL for β-nitrostyrenes and 16 to 0.03 μg/mL for ciprofloxacin as well as amphotericin B. Stock inoculum suspensions of the bacteria, Candida species and Aspergillus species were prepared in sterile normal saline (0.85%) containing 0.05% polysorbate 20 (NST) from overnight (3 to 5-day old for Aspergillus species) strains grown on Trypticase soy agar (TSA; Becton-Dickinson) and potato dextrose agar (Difco Laboratories, Detroit, MI, USA) respectively at 35°C. Inocula were verified for each assay by plating onto agar plates for colony enumeration. These suspensions were further diluted in the respective test medium and a 100 μl volume of this diluted inoculum was added to each well of the plate, resulting in a final inoculum concentration of approximately 5 × 10^5 CFU/mL for bacter1ia, (Wayne, [2008a]) approximately 2.5 × 10^4 CFU/ml for Candida species (Pfaller et al., [2004]) while as 0.4 × 10^4 to 5 × 10^4 CFU/mL for Aspergillus species (Wayne, [2008c]). Untreated growth control, vehicle control (DMSO) and sterility control wells were included for each isolate tested. Ciprofloxacin and amphotericin B served as the standard drug controls for bacterial and fungal strains, respectively. The microtiter plates were incubated at 35°C for 24 h for bacterial strains and 48 h for fungal strains. The plates were read visually and the minimum inhibitory concentration (MIC) was defined as the lowest concentration of test sample that prevented visible growth with respect to the growth control.
(§3) The minimum bactericidal concentration (MBC) and minimum fungicidal concentration (MFC) were determined by plating 100 μl volumes on agar plates from the wells showing no visible growth (clear MIC well). The plates were incubated as described above in MIC measurements. […] All experiments were conducted twice in duplicates on separate occasions with freshly prepared inoculums and stock solutions.

[2] = tested on: Candida glabrata ATCC 90030; assay: as above; conditions: Nakaseomyces glabratus; for MIC: broth microdilution, 35°C, 48 h, read-out: MIC, Cg ATCC 90030; for MFC: ≥99.9% reduction of original inoculum, read-out: MFC, Cg ATCC 90030
Source text: as §1, §2, §3

[3] = tested on: Aspergillus niger ATCC 16404; assay: as above; conditions: Aspergillus niger; for MIC: broth microdilution, 35°C, 48 h, read-out: MIC, An ATCC 16404; for MFC: ≥99.9% reduction of original inoculum, read-out: MFC, An ATCC 16404
Source text: as §1, §2, §3

[4] = tested on: Aspergillus fumigatus ATCC 16424; assay: as above; conditions: Aspergillus fumigatus; for MIC: broth microdilution, 35°C, 48 h, read-out: MIC, Af ATCC 16424; for MFC: ≥99.9% reduction of original inoculum, read-out: MFC, Af ATCC 16424
Source text: as §1, §2, §3

[5] = tested on: Staphylococcus epidermidis ATCC 14990; assay: Broth microdilution antibacterial susceptibility (MIC/MBC); conditions: for MIC / MBC: Staphylococcus epidermidis; for MIC: read-out: MIC, Se ATCC 14990; for MBC: ≥99.9% reduction of original inoculum, read-out: MBC, Se ATCC 14990
Source text: as §1, §2, §3

[6] = tested on: Pseudomonas aeruginosa ATCC 27853; assay: as above; conditions: Pseudomonas aeruginosa; for MIC: broth microdilution, 35°C, 24 h, read-out: MIC, Pa ATCC 27853; for MBC: ≥99.9% reduction of original inoculum, read-out: MBC, Pa ATCC 27853
Source text: as §1, §2, §3

[7] = tested on: Escherichia coli ATCC 25922; assay: as above; conditions: Escherichia coli; for MIC: broth microdilution, 35°C, 24 h, read-out: MIC, Ec ATCC 25922; for MBC: ≥99.9% reduction of original inoculum, read-out: MBC, Ec ATCC 25922
Source text: as §1, §2, §3

[8] = tested on: Staphylococcus aureus ATCC 29213; assay: as above; conditions: for MIC / MBC: Staphylococcus aureus; for MIC: read-out: MIC, Sa ATCC 29213; for MBC: ≥99.9% reduction of original inoculum, read-out: MBC, Sa ATCC 29213
Source text: as §1, §2, §3

[9] = ATCC14990, 24 h, broth microdilution, 35°C, 24 h
[10] = ATCC29213, 24 h, broth microdilution, 35°C, 24 h
[11] = ATCC14990, broth microdilution, 35°C, 24 h
[12] = ATCC29213, broth microdilution, 35°C, 24 h
[13] = broth microdilution, 35°C, 24 h

| Structure (SMILES) | MIC ([1]; ATCC90028, 48 h) [µg/mL] | MFC ([1]; ATCC90028) [µg/mL] | MIC ([2]; ATCC90030, 48 h) [µg/mL] | MFC ([2]; ATCC90030) [µg/mL] | MIC ([3]; ATCC16404, 48 h) [µg/mL] | MFC ([3]; ATCC16404) [µg/mL] | MIC ([4]; ATCC16424, 48 h) [µg/mL] | MFC ([4]; ATCC16424) [µg/mL] | MIC [5, 9] [µg/mL] | MBC ([5]; ATCC14990) [µg/mL] | MIC ([6]; ATCC27853, 24 h) [µg/mL] | MBC ([6]; ATCC27853) [µg/mL] | MIC ([7]; ATCC25922, 24 h) [µg/mL] | MBC ([7]; ATCC25922) [µg/mL] | MIC [8, 10] [µg/mL] | MBC ([8]; ATCC29213) [µg/mL] | further results |
| --- | --- | --- | --- | --- | --- | --- | --- | --- | --- | --- | --- | --- | --- | --- | --- | --- | --- |
| CC/C(=C\c1ccc(N(C)C)cc1)[N+](=O)[O-] [Compound 6, N,N-dimethyl-4-((E)-2-nitrobut-1-enyl) benzenamine] | > 64 | > 64 | 32 (≈ 145 µM) | 32 (≈ 145 µM) | 64 (≈ 291 µM) | > 64 | > 64 | > 64 | > 64 | > 64 | > 64 | > 64 | > 64 | > 64 | > 64 | > 64 |  |
| COc1ccc(/C=C/[N+](=O)[O-])cc1 [Compound 13, 1-methoxy-4-((E)-2-nitrovinyl) benzene] | 64 (≈ 357 µM) | 64 (≈ 357 µM) | 32 (≈ 179 µM) | 32 (≈ 179 µM) | 64 (≈ 357 µM) | 64 (≈ 357 µM) | 64 (≈ 357 µM) | > 64 | 32 (≈ 179 µM) | 32 (≈ 179 µM) | > 64 | > 64 | > 64 | > 64 | 64 (≈ 357 µM) | 64 (≈ 357 µM) |  |
| O=C(O)c1cn(C2CC2)c2cc(N3CCNCC3)c(F)cc2c1=O [Cipro, Ciprofloxacin, reference compound] |  |  |  |  |  |  |  |  | 0.25 (≈ 0.754 µM) | 0.25 (≈ 0.754 µM) | 0.25 (≈ 0.754 µM) | 1 (≈ 3.02 µM) | < 0.03 | < 0.03 | 0.25 (≈ 0.754 µM) | 0.5 (≈ 1.51 µM) |  |
| O=[N+]([O-])/C=C/c1cccc(O)c1 [Compound 19, 3-((E)-2-nitrovinyl) phenol] |  | > 64 |  | 16 (≈ 96.9 µM) |  | 64 (≈ 388 µM) |  | > 64 |  | > 64 |  | > 64 |  | > 64 |  | > 64 | MIC ([1]; ATCC90028): 64 µg/mL (≈ 388 µM); MIC ([2]; ATCC90030): 16 µg/mL (≈ 96.9 µM); MIC ([3]; ATCC16404): 64 µg/mL (≈ 388 µM); MIC ([4]; ATCC16424): 64 µg/mL (≈ 388 µM); MIC [5, 11]: 64 µg/mL (≈ 388 µM); MIC ([6]; ATCC27853): > 64 µg/mL; MIC ([7]; ATCC25922): > 64 µg/mL; MIC [8, 12]: > 64 µg/mL |
| CN(C)c1ccc(/C=C/[N+](=O)[O-])cc1 [Compound 4, N,N-dimethyl-4-((E)-2-nitrovinyl) benzenamine] | > 64 | > 64 | 32 (≈ 166 µM) | 32 (≈ 166 µM) | 64 (≈ 333 µM) | > 64 | 64 (≈ 333 µM) | > 64 | > 64 | > 64 | > 64 | > 64 | > 64 | > 64 | > 64 | > 64 |  |
| O=[N+]([O-])/C=C/c1ccc(Cl)cc1 [Compound 1, 1-chloro-4-((E)-2-nitrovinyl) benzene] | 32 (≈ 174 µM) | 32 (≈ 174 µM) | 4 (≈ 21.8 µM) | 4 (≈ 21.8 µM) | 4 (≈ 21.8 µM) | 4 (≈ 21.8 µM) | 8 (≈ 43.6 µM) | 8 (≈ 43.6 µM) | 16 (≈ 87.1 µM) | 16 (≈ 87.1 µM) | 32 (≈ 174 µM) | 64 (≈ 349 µM) | 32 (≈ 174 µM) | 32 (≈ 174 µM) | 32 (≈ 174 µM) | 32 (≈ 174 µM) |  |
| O=[N+]([O-])/C=C/c1c[nH]c2ccccc12 [Compound 28, 3-((E)-2-nitrovinyl)-1H-indole] | 32 (≈ 170 µM) | 32 (≈ 170 µM) | 16 (≈ 85 µM) | 16 (≈ 85 µM) | 8 (≈ 42.5 µM) | 16 (≈ 85 µM) | 16 (≈ 85 µM) | 16 (≈ 85 µM) | 64 (≈ 340 µM) | 64 (≈ 340 µM) | > 64 | > 64 | 64 (≈ 340 µM) | > 64 | 64 (≈ 340 µM) | > 64 |  |
| O=[N+]([O-])/C=C/c1ccc(O)cc1 [Compound 16, 4-((E)-2-nitrovinyl) phenol] | 32 (≈ 194 µM) | 32 (≈ 194 µM) | 16 (≈ 96.9 µM) | 16 (≈ 96.9 µM) | 8 (≈ 48.4 µM) | 16 (≈ 96.9 µM) | 16 (≈ 96.9 µM) | 16 (≈ 96.9 µM) | 64 (≈ 388 µM) | 64 (≈ 388 µM) | > 64 | > 64 | 64 (≈ 388 µM) | > 64 | 64 (≈ 388 µM) | > 64 |  |
| CC/C(=C\c1ccc(Cl)cc1)[N+](=O)[O-] [Compound 3, 1-chloro-4-((E)-2-nitrobut-1-enyl) benzene] |  | > 64 |  | > 64 |  | 32 (≈ 151 µM) |  | 64 (≈ 302 µM) | 2 to 16 (≈ 9.45 to 75.6 µM) | 2 (≈ 9.45 µM) |  | > 64 |  | > 64 | 2 to 32 (≈ 9.45 to 151 µM) | 4 (≈ 18.9 µM) | MIC, Se ATCC 14990 [5, 13]: 2 µg/mL (≈ 9.45 µM); MIC, Sa ATCC 29213 [8, 13]: 4 µg/mL (≈ 18.9 µM) |
| C/C(=C\c1ccc(N(C)C)cc1)[N+](=O)[O-] [Compound 5, N,N-dimethyl-4-((E)-2-nitroprop-1-enyl) benzenamine] | > 64 | > 64 | 32 (≈ 155 µM) | 32 (≈ 155 µM) | 64 (≈ 310 µM) | > 64 | > 64 | > 64 | > 64 | > 64 | > 64 | > 64 | > 64 | > 64 | > 64 | > 64 |  |
| C/C(=C\c1ccc(Cl)cc1)[N+](=O)[O-] [Compound 2, 1-chloro-4-((E)-2-nitroprop-1-enyl) benzene] |  | > 64 |  | 32 (≈ 162 µM) |  | > 64 |  | > 64 |  | 32 (≈ 162 µM) |  | > 64 |  | > 64 |  | > 64 | MIC ([1]; ATCC90028): > 64 µg/mL; MIC ([2]; ATCC90030): 32 µg/mL (≈ 162 µM); MIC ([3]; ATCC16404): 64 µg/mL (≈ 324 µM); MIC ([4]; ATCC16424): > 64 µg/mL; MIC [5, 11]: 32 µg/mL (≈ 162 µM); MIC ([6]; ATCC27853): > 64 µg/mL; MIC ([7]; ATCC25922): > 64 µg/mL; MIC [8, 12]: > 64 µg/mL |
